Consider three molecules from patent publication US20130108573A1, “Bile Acid Recycling Inhibitors for Treatment of Hypercholemia and Cholestatic Liver Disease” (Lumena Pharmaceuticals, Inc., priority 2011, published 2013).

The test system of one assay is Plasma Bile Acid Levels. Kind of assay: Plasma bile acid levels of ZDF rats after ascending doses of SC-435 and LUM002. As to conditions: male ZDF rats n=4, end of second week. The class given is in vivo. The procedure:
FIG. 2. Plasma bile acid levels of ZDF rats after administration of ascending doses of SC-435 and LUM002. Male ZDF rats (n=4) were administered vehicle, SC-435 (1, 10 or 30 mg/kg) or LUM002 (0.3, 1, 3, 10 or 30 mg/kg) by oral gavage twice a day for 2 weeks. Plasma bile acid levels were determined at the end of the second week. Data are expressed as mean values ±SEM.
Male ZDF rats (n=4) were administered vehicle, SC-435 (1, 10 or 30 mg/kg) or LUM002 (0.3, 1, 3, 10 or 30 mg/kg) by oral gavage twice a day for 2 weeks. Plasma bile acid levels were determined at the end of the second week. […] Data are expressed as mean values ±SEM.

Assay [1] has as its system Fecal Bile Acid Excretion and Plasma Bile Acid Concentrations. Kind of assay: ZDF rat study of 264W94: fecal bile acid excretion and plasma bile acid concentrations. The class given is in vivo, Zucker diabetic fatty rats. As to conditions: male ZDF rats, 2 weeks. The procedure: Male Zucker diabetic fatty rats (ZDF/GmiCrl-fa/fa) were purchased from Charles River (Raleigh, N.C.) and housed under controlled conditions (12:12 light-dark cycle, 24° C. and 50% relative humidity) with free access to rodent food (Purina 5008, Harlan Teklad, Indianapolis, Ind.). All rats arrived at seven weeks of age (±3 days). After a one-week acclimation period, rats were anesthetized with isoflurane (Abbott Laboratories, IL) and tail-vein blood samples were collected at 9 am without fasting. Blood glucose levels were measured using a glucometer (Bayer, Leverkusen, Germany). In order to ensure balanced treatment groups, ZDF rats were assigned to six treatment groups based upon baseline glucose: vehicle (0.5% HPMC, 0.1% Tween80) and five doses of 264W94 (0.001, 0.01, 0.1, 1, 10 mg/kg). All treatments were given via oral gavage twice a day and animals were followed for two weeks with blood samples collected from tail vein at the end of each week at 9 am without fasting. Fecal samples were collected for 24 hours during the second week of treatment.
Non-esterified fatty acids (NEFA), bile acids, and bile acids in fecal extraction were measured using the Olympus AU640 clinical chemistry analyzer (Beckman Coulter, Irving, Tex.).

[2] abbreviates: 264W94 0.001-10 mg/kg oral gavage twice a day.

As for `CCCC[C@]1(CC)CS(=O)(=O)c2ccc(N(C)C)cc2[C@@H](c2cccc(NC(=O)N[C@@H]3O[C@H](COS(=O)(=O)[O-])[C@@H](O)[C@H](OCc4ccccc4)[C@H]3O)c2)[C@H]1O.[K+]` [LUM002], in the assay with Plasma Bile Acid Levels (LUM002 0.3, 1, 3, 10 or 30 mg/kg oral gavage twice a day for 2 weeks), the “Plasma bile acid levels” value was “decreased for all doses”.
On to `CCCC[C@]1(CC)CS(=O)(=O)c2cc(OC)c(OC)cc2[C@@H](c2ccccc2)N1` [Compound 264W94], for which, in assay [1] (setting [2]), the “Fecal NEFA” value is recorded as “slightly increased” and the “Plasma bile acid concentrations” value is given as “decreased dose-dependently”. In assay [1] (264W94 0.001-10 mg/kg oral gavage twice a day, 24 h feces in second week), the “Fecal bile acid concentrations elevated compared to vehicle treated rats” value is reported as “up to 6.5 fold”. In assay [1] (oral administration of 264W94 0.001-10 mg/kg twice a day), the “Bile acids in the feces” value is “dose-dependently increased”. Also, in assay [1] (oral gavage twice a day), the “ED50 of fecal bile acid elevation” value is listed as 0.17 mg/kg.
Consider `CCCCC1(CCCC)CS(=O)(=O)c2ccc(N(C)C)cc2[C@@H](c2ccc(OCCCC[N+]34CCN(CC3)CC4)cc2)[C@H]1O.CS(=O)(=O)[O-]` [SC-435, 1-[4-[4-[(4R,5R)-3,3-dibutyl-7-(dimethylamino)-2,3,4,5-tetrahydro-4-hydroxy-1,1-dioxido-1-benzothiepin-5-yl]phenoxy]butyl]-4-aza-1-azoniabicyclo[2.2.2]octane methanesulfonate salt, reference compound], for which the “Plasma bile acid levels” value with Plasma Bile Acid Levels (SC-435 1, 10 or 30 mg/kg oral gavage twice a day for 2 weeks) is given as “decreased for all doses”.
